Reference: article PMC4224565 (Molecular Pharmaceutics, 2014)

Tests used:
[1] = system: INS-1 tumor mice; assay: Ex vivo biodistribution in INS-1 tumor mice; design: species or system mouse; conditions: control group, dissected tissue, γ-counter, 2 h post injection, n = 5, mean ± SD
[2] = system: dipeptidyl-peptidase-IV; conditions: degraded by dipeptidyl-peptidase-IV via cleavage of two N-terminal residues; cited from earlier work

| INS-1 tumor uptake (biodistribution) [1] [%ID/g] | Molecule | half-life in vivo [2] |
| --- | --- | --- |
| 23.06 ± 3.87 | O=C(NCCN1C(=O)C=CC1=O)c1ccc(F)nc1 [[^18F]FNEM, N-(2-(2,5-Dioxo-2,5-dihydro-1H-pyrrol-1-yl)ethyl)-6-fluoronicotinamide] | – |
| – | GLP-1: glucose-dependent hormone released mainly from the small intestine | less than 2 min |
